# Data taken from patent US10758534B2 (Vertex Pharmaceuticals Incorporated, priority 2014, dated 2020).
# Molecular target: T1, F508del (Homo sapiens, UniProt P13569, DEL508-508)
# T1 construct: expressed in transfected cells
# Assay: Protocol 1: membrane potential optical assay (FLIPR III, voltage sensing dye), identification of potentiator compounds
# Assay type: cell-based
# Settings: Table 3, compounds of Table 1
# Method in brief: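 Membrane potential in forskolin-activated, temperature-rescued F508del NIH 3T3 cells is followed with a voltage-sensing dye on FLIPR III. A chloride ion gradient created at the single addition step provides the driving force, after prior compound treatment.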
# T1 sequence (P13569 with tags, fused parts or gaps DEL508-508): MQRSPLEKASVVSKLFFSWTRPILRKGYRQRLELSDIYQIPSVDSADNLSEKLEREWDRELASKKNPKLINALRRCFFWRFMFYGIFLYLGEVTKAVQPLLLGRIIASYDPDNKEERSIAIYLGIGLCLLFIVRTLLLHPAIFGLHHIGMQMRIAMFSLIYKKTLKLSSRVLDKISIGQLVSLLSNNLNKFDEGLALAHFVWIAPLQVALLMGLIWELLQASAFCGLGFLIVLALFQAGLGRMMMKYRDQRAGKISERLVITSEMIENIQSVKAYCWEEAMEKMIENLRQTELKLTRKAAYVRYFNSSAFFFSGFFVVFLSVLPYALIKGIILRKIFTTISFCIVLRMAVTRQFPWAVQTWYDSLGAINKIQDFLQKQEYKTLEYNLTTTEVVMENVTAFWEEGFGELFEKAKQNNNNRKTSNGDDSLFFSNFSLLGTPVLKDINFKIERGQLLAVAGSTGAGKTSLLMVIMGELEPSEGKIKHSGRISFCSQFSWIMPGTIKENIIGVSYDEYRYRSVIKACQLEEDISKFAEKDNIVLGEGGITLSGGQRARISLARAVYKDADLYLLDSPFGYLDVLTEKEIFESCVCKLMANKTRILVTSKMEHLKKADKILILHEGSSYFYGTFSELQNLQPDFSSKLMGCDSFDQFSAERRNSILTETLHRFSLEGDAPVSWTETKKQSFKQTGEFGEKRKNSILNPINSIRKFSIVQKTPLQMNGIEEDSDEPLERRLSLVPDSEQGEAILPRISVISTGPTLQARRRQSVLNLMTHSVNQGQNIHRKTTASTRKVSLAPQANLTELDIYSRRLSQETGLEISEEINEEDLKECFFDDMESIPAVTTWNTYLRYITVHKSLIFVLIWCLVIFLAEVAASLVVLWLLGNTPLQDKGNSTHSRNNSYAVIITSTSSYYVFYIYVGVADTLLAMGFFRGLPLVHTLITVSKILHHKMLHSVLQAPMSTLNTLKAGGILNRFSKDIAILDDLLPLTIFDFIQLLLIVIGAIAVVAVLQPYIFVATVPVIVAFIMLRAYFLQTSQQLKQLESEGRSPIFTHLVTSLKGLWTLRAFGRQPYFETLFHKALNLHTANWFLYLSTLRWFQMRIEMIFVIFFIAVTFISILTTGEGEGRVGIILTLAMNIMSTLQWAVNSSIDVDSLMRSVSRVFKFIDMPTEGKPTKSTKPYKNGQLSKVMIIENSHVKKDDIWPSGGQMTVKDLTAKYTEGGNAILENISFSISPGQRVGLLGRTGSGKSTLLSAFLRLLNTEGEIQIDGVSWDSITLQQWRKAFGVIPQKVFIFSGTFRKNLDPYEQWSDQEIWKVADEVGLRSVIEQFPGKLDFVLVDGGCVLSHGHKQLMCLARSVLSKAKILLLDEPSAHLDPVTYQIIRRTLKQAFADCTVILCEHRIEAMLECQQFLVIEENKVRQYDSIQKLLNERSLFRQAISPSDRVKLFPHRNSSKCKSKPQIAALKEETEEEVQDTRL
row,SMILES,EC30
1,"CC(C)COc1cc(F)cc(-c2ccc(C(=O)NS(=O)(=O)c3cccc(O)c3)c(N3C[C@@H](C)CC3(C)C)n2)c1 [Compound 1885, 6-(3-fluoro-5-isobutoxy-phenyl)-N-(3-hydroxyphenyl)sulfonyl-2-[(4S)-2,2,4-trimethylpyrrolidin-1-yl]pyridine-3-carboxamide]",+++ (“+++” means <3 uM)
2,"COc1ccc(-c2cnc(N3CC(C)CC3(C)C)c(C(=O)NS(=O)(=O)c3cccc(N)n3)c2)cn1 (stereo not shown) [Compound 1886, N-[(6-amino-2-pyridyl)sulfonyl]-5-(6-methoxy-3-pyridyl)-2-(2,2,4-trimethylpyrrolidin-1-yl)pyridine-3-carboxamide]",++ (“++” means between 3 uM and 10 uM)
3,"[2H]C([2H])([2H])C([2H])(COc1ccn(-c2ccc(C(=O)NS(=O)(=O)c3cccnc3N)c(N3C[C@@H](C)CC3(C)C)n2)n1)C([2H])([2H])[2H] [Compound 1887, N-[(2-amino-3-pyridyl)sulfonyl]-6-[3-[2,3,3,3-tetradeuterio-2-(trideuteriomethyl)propoxy]pyrazol-1-yl]-2-[(4S)-2,2,4-trimethylpyrrolidin-1-yl]pyridine-3-carboxamide]",+++ (“+++” means <3 uM)
4,"CC1CN(c2ncc(C3=CC4CCC3C4)cc2C(=O)NS(=O)(=O)c2cccc(N)n2)C(C)(C)C1 (stereo not shown) [Compound 1888, N-[(6-amino-2-pyridyl)sulfonyl]-5-(3-bicyclo[2.2.1]hept-2-enyl)-2-(2,2,4-trimethylpyrrolidin-1-yl)pyridine-3-carboxamide]",++ (“++” means between 3 uM and 10 uM)
5,"Cc1cc(OC(C)C)cc(-c2cnc(N3CC(C)CC3(C)C)c(C(=O)NS(=O)(=O)c3cccc(N)n3)c2)c1 (stereo not shown) [Compound 1889, N-[(6-amino-2-pyridyl)sulfonyl]-5-(3-isopropoxy-5-methyl-phenyl)-2-(2,2,4-trimethylpyrrolidin-1-yl)pyridine-3-carboxamide]",+++ (“+++” means <3 uM)
6,"Cc1cccc(C)c1Oc1nc(-c2cc(F)cc(OCC(C)(C)O)c2)ccc1C(=O)NS(=O)(=O)c1cccc(N)n1 [Compound 1890, N-[(6-amino-2-pyridyl)sulfonyl]-2-(2,6-dimethylphenoxy)-6-[3-fluoro-5-(2-hydroxy-2-methyl-propoxy)phenyl]pyridine-3-carboxamide]",++ (“++” means between 3 uM and 10 uM)
7,"CC(Oc1nc(N2C[C@@H](C)CC2(C)C)c(C(=O)NS(=O)(=O)c2cccc(N)n2)cc1F)C1CCOCC1 (stereo partly drawn) [Compound 1891, N-[(6-amino-2-pyridyl)sulfonyl]-5-fluoro-6-(1-tetrahydropyran-4-ylethoxy)-2-[(4S)-2,2,4-trimethylpyrrolidin-1-yl]pyridine-3-carboxamide]",+++ (“+++” means <3 uM)
8,"Cc1ccc(CNc2cccc(S(=O)(=O)NC(=O)c3cccnc3N3CC(C)CC3(C)C)n2)cc1 (stereo not shown) [Compound 1892, N—[[6-(p-tolylmethylamino)-2-pyridyl]sulfonyl]-2-(2,2,4-trimethylpyrrolidin-1-yl)pyridine-3-carboxamide]",+++ (“+++” means <3 uM)
9,"CO[C@@H]1CCN(S(=O)(=O)NC(=O)c2ccc(-c3cc(F)cc(OCC(C)C)c3)nc2N2C[C@@H](C)CC2(C)C)C1 [Compound 1893, 6-(3-fluoro-5-isobutoxy-phenyl)-N-[(3R)-3-methoxypyrrolidin-1-yl]sulfonyl-2-[(4S)-2,2,4-trimethylpyrrolidin-1-yl]pyridine-3-carboxamide]",+++ (“+++” means <3 uM)
10,"CC(C)CCOc1cccc(-c2cnc(N3CC(C)CC3(C)C)c(C(=O)NS(=O)(=O)c3cccc(N)n3)c2)c1 (stereo not shown) [Compound 1894, N-[(6-amino-2-pyridyl)sulfonyl]-5-(3-isopentyloxyphenyl)-2-(2,2,4-trimethylpyrrolidin-1-yl)pyridine-3-carboxamide]",+++ (“+++” means <3 uM)
11,"CC(C)COc1cnn(-c2ccc(C(=O)NS(=O)(=O)c3cccnc3N)c(N3C[C@@H](C)CC3(C)C)n2)c1 [Compound 1895, N-[(2-amino-3-pyridyl)sulfonyl]-6-(4-isobutoxypyrazol-1-yl)-2-[(4S)-2,2,4-trimethylpyrrolidin-1-yl]pyridine-3-carboxamide]",+++ (“+++” means <3 uM)
12,"CC(C)COc1ccn(-c2ccc(C(=O)NS(=O)(=O)c3ccc[nH]c3=O)c(N3C[C@@H](C)CC3(C)C)n2)n1 [Compound 1896, 6-(3-isobutoxypyrazol-1-yl)-N-[(2-oxo-1H-pyridin-3-yl)sulfonyl]-2-[(4S)-2,2,4-trimethylpyrrolidin-1-yl]pyridine-3-carboxamide]",+++ (“+++” means <3 uM)
13,"CC(C)Oc1ccccc1-c1ccc(C(=O)NS(=O)(=O)N2CC[C@H](N)C2)c(N2C[C@@H](C)CC2(C)C)n1 [Compound 1897, N-[(3S)-3-aminopyrrolidin-1-yl]sulfonyl-6-(2-isopropoxyphenyl)-2-[(4S)-2,2,4-trimethylpyrrolidin-1-yl]pyridine-3-carboxamide]",+++ (“+++” means <3 uM)
14,"Cc1ccccc1Nc1cccc(S(=O)(=O)NC(=O)c2cccnc2N2CC(C)CC2(C)C)n1 (stereo not shown) [Compound 1898, N—[[6-(2-methylanilino)-2-pyridyl]sulfonyl]-2-(2,2,4-trimethylpyrrolidin-1-yl)pyridine-3-carboxamide]",++ (“++” means between 3 uM and 10 uM)
15,"CC1CN(c2ncccc2C(=O)NS(=O)(=O)c2cccc(OCc3ccc(F)cc3Cl)n2)C(C)(C)C1 (stereo not shown) [Compound 1899, N—[[6-[(2-chloro-4-fluoro-phenyl)methoxy]-2-pyridyl]sulfonyl]-2-(2,2,4-trimethylpyrrolidin-1-yl)pyridine-3-carboxamide]",+++ (“+++” means <3 uM)
16,"C[C@@H]1CN(c2nc(-c3ccc(C(F)(F)F)cc3)ccc2C(=O)NS(=O)(=O)N2CC[C@H](N)C2)C(C)(C)C1 [Compound 1900, N-[(3S)-3-aminopyrrolidin-1-yl]sulfonyl-6-[4-(trifluoromethyl)phenyl]-2-[(4S)-2,2,4-trimethylpyrrolidin-1-yl]pyridine-3-carboxamide]",++ (“++” means between 3 uM and 10 uM)
17,"CC(C)COc1cc(F)cc(-c2ccc(C(=O)NS(=O)(=O)c3cccc(N)n3)c(N3CCCCC(C)(C)C3)n2)c1 [Compound 1901, N-[(6-amino-2-pyridyl)sulfonyl]-2-(3,3-dimethylazepan-1-yl)-6-(3-fluoro-5-isobutoxy-phenyl)pyridine-3-carboxamide]",+++ (“+++” means <3 uM)
18,"CC1CN(c2ncccc2C(=O)NS(=O)(=O)c2cccc(Oc3ccc(C(C)C)cc3)n2)C(C)(C)C1 (stereo not shown) [Compound 1902, N—[[6-(4-isopropylphenoxy)-2-pyridyl]sulfonyl]-2-(2,2,4-trimethylpyrrolidin-1-yl)pyridine-3-carboxamide]",+++ (“+++” means <3 uM)
19,"CC(C)Oc1ccc(-c2ccc(C(=O)NS(=O)(=O)c3cccnc3N)c(N3C[C@@H](C)CC3(C)C)n2)cc1 [Compound 1903, N-[(2-amino-3-pyridyl)sulfonyl]-6-(4-isopropoxyphenyl)-2-[(4S)-2,2,4-trimethylpyrrolidin-1-yl]pyridine-3-carboxamide]",+++ (“+++” means <3 uM)
20,"COc1cc(F)c(F)cc1-c1ccc(C(=O)NS(=O)(=O)c2ccc[nH]c2=O)c(N2C[C@@H](C)CC2(C)C)n1 [Compound 1904, 6-(4,5-difluoro-2-methoxy-phenyl)-N-[(2-oxo-1H-pyridin-3-yl)sulfonyl]-2-[(4S)-2,2,4-trimethylpyrrolidin-1-yl]pyridine-3-carboxamide]",+++ (“+++” means <3 uM)
21,"CC1CN(c2ncccc2C(=O)NS(=O)(=O)c2cccc(NC(C)c3ccccc3)n2)C(C)(C)C1 (stereo not shown) [Compound 1905, N—[[6-(1-phenylethylamino)-2-pyridyl]sulfonyl]-2-(2,2,4-trimethylpyrrolidin-1-yl)pyridine-3-carboxamide]",+++ (“+++” means <3 uM)
22,"CC1CN(c2ncccc2C(=O)NS(=O)(=O)c2cccc(Nc3cccc(Cl)c3Cl)n2)C(C)(C)C1 (stereo not shown) [Compound 1906, N—[[6-(2,3-dichloroanilino)-2-pyridyl]sulfonyl]-2-(2,2,4-trimethylpyrrolidin-1-yl)pyridine-3-carboxamide]",+++ (“+++” means <3 uM)
23,"CCN(CC)c1nc(-c2ccc(C(=O)NS(=O)(=O)c3cccc(N)n3)c(N3CC(C)CC3(C)C)n2)ccc1C (stereo not shown) [Compound 1907, N-[(6-amino-2-pyridyl)sulfonyl]-6-[6-(diethylamino)-5-methyl-2-pyridyl]-2-(2,2,4-trimethylpyrrolidin-1-yl)pyridine-3-carboxamide]",+++ (“+++” means <3 uM)
24,"CC1CN(c2ncccc2C(=O)NS(=O)(=O)c2cccc(OC3CCCCC3)n2)C(C)(C)C1 (stereo not shown) [Compound 1908, N—[[6-(cyclohexoxy)-2-pyridyl]sulfonyl]-2-(2,2,4-trimethylpyrrolidin-1-yl)pyridine-3-carboxamide]",+++ (“+++” means <3 uM)
25,"CC1CN(c2ncccc2C(=O)NS(=O)(=O)c2cccc(Nc3ccc4c(c3)CCC4)n2)C(C)(C)C1 (stereo not shown) [Compound 1909, N—[[6-(indan-5-ylamino)-2-pyridyl]sulfonyl]-2-(2,2,4-trimethylpyrrolidin-1-yl)pyridine-3-carboxamide]",+++ (“+++” means <3 uM)
26,"Cc1ccc(-c2ccc(C(=O)NS(=O)(=O)c3cccc(N)n3)c(N3C[C@@H](C)CC3(C)C)n2)c(F)c1 [Compound 1910, N-[(6-amino-2-pyridyl)sulfonyl]-6-(2-fluoro-4-methyl-phenyl)-2-[(4S)-2,2,4-trimethylpyrrolidin-1-yl]pyridine-3-carboxamide]",+++ (“+++” means <3 uM)
27,"CC(C)C(C)c1ccc(C(=O)NS(=O)(=O)c2cccnc2N)c(N2C[C@@H](C)CC2(C)C)n1 (stereo partly drawn) [Compound 1911, N-[(2-amino-3-pyridyl)sulfonyl]-6-(1,2-dimethylpropyl)-2-[(4S)-2,2,4-trimethylpyrrolidin-1-yl]pyridine-3-carboxamide]",+++ (“+++” means <3 uM)
28,"CC(C)COc1cnn(-c2ccc(C(=O)NS(=O)(=O)c3ccccc3)c(N3C[C@@H](C)CC3(C)C)n2)c1 [Compound 1912, N-(benzenesulfonyl)-6-(4-isobutoxypyrazol-1-yl)-2-[(4S)-2,2,4-trimethylpyrrolidin-1-yl]pyridine-3-carboxamide]",+++ (“+++” means <3 uM)
